The values that follow come from paper PMC4235525, “Anticancer Properties of Novel Rhenium Pentylcarbanato Compounds against MDA-MB-468(HTB-132) Triple Node Negative Human Breast Cancer Cell Lines” (British journal of pharmaceutical research, 2015).

Assay [1] has as its system MDA-MB-468 (HTB-132) triple node negative breast cancer cell lines. Description: Trypan blue cytotoxicity assay, 48 h treatment. The format is cell-based, human. Conditions: drugs in DMSO, read-out: IC-50 (mean ± S.D.), concentration required to have 50% cell-growth inhibition, Breast Cancer HTB-132 cell lines. As for the experimental part: MDA-MB-468 (HTB-132) triple node negative breast cancer cell lineswere obtained from ATCC (USA), cultured inL-15 medium supplemented with 10% Fetal Bovine Serum(FBS), penicillin and streptomycin antibiotics and grownat 37°C inan incubator. The mouse glomerular mesangialcell line was a kind gift from Dr. C. Reilly of Virginia Tech University, USA. These cells were cultured in RPMI-1640 medium supplemented with 10%FBS, penicillin and streptomycin antibiotics and grown at 37°C in a carbon dioxide incubator.
HTB-132 breast cancer cell lines were grown in six well plates to confluency, the cells were then kept in serum-free medium overnight and then treated with each of drugsPC1-6 (dissolved in DMSO) along with untreated cells and DMSO vehicular control for 48 hours. […] Atrypan blue assay was done to measure cell viability using a standard hemocytometer and light microscope.
Each experiment was repeated three times and statistical t test was used to analyze the results with P<0.05.

Assay [2] relates to Balb/c mouse kidney (mouse glomerular mesangial) cell line. In words: Trypan blue cytotoxicity (nephrotoxicity) in mouse kidney cells. The format is cell-based. Particulars: 48 hours, trypan blue assay, drugs in DMSO; read-out: IC-50 (mean ± S.D.), concentration required to have 50% cell-growth inhibition, Mouse Mesangial cell lines. The procedure: Aim To study the efficacy of novel rhenium compounds to treat triple node negative breast cancer. Place and Duration Six (6) novel rhenium pentycarbanato compounds (PC1-6) were synthesized and triple node negative breast cancer cell lines HTB-132 and Balb/c mouse kidney cell lines were treated with each of them for 48 hours. The results were analyzed by a common trypan blue cell death assay system and statistically analyzed. Place and Duration The compounds were synthesized, analyzed and evaluated at the Department of Chemistryof Morgan State University, Baltimore, Maryland and the Pharmaceutical Sciences Department of Elizabeth City State University campus of the University of North Carolina system. Methodology The novel rhenium compounds were synthesized from one-pot reactions of Re2(CO)10 with the corresponding α-diimine ligands in 1-pentanol.The compounds were characterized spectroscopically. The cell lines were cultured by standard cell culture procedure and treated with each of the six compounds in DMSO for 48 hours with a negative control and a DMSO vehicular control along with a cisplatin positive control.The cytotoxicity was evaluated by standard trypan blue assay and the results were statistically analyzed. […] Conclusion The novel rhenium compounds PC 1-6 can potentially find applications in the treatment of highly malignant triple node negative breast cancer. […]

As for cis-[Pt (NH3)2Cl2] [Cisplatin], the IC50 in assay [1] is 5 ± 2.5 µM; in assay [2] it was 1 ± 2.5 µM.
